Experimental data published in patent US6090834A, “Substituted oxazoles for the treatment of inflammation” (G.D. Searle & Co., priority 1998, dated 2000).

Assays:
COX-2 = COX-2 activity in vitro (PGE2 formed, ELISA); type: biochemical, human or murine; settings: recombinant enzyme, arachidonic acid 10 μM, pH 8.0; read-out: COX II ID50
Protocol: (§1) Evaluation of COX I and COX II activity in vitro
(§2) The COX-2 inhibition activity of the compounds of this invention illustrated in the Examples was determined by the following methods. a. Preparation of recombinant COX baculoviruses
(§3) Recombinant COX-1 and COX-2 were prepared as described by Gierse et al, [J. Biochem., 305, 479-84 (1995)]. A 2.0 kb fragment containing the coding region of either human or murine COX-1 or human or murine COX-2 was cloned into a BamH1 site of the baculovirus transfer vector pVL1393 (Invitrogen) to generate the baculovirus transfer vectors for COX-1 and COX-2 in a manner similar to the method of D. R. O'Reilly et al (Baculovirus Expression Vectors: A Laboratory Manual (1992)). Recombinant baculoviruses were isolated by transfecting 4 μg of baculovirus transfer vector DNA into SF9 insect cells (2×10^8) along with 200 ng of linearized baculovirus plasmid DNA by the calcium phosphate method. See M. D. Summers and G. E. Smith, A Manual of Methods for Baculovirus vectors and Insect Cell Culture Procedures, Texas Agric. Exp. Station Bull. 1555 (1987). Recombinant viruses were purified by three rounds of plaque purification and high titer (10^7 -10^8 pfu/ml) stocks of virus were prepared. For large scale production, SF9 insect cells were infected in 10 liter fermentors (0.5×10^6 /ml) with the recombinant baculovirus stock such that the multiplicity of infection was 0.1. After 72 hours the cells were centrifuged and the cell pellet homogenized in Tris/Sucrose (50 mM: 25%, pH 8.0) containing 1% 3-[(3-cholamidopropyl)dimethylammonio]-1-propanesulfonate (CHAPS). The homogenate was centrifuged at 10,000×G for 30 minutes, and the resultant supernatant was stored at -80° C. before being assayed for COX activity. […]
(§4) b. Assay for COX-1 and COX-2 activity
(§5) COX activity was assayed as PGE2 formed/μg protein/time using an ELISA to detect the prostaglandin released. CHAPS-solubilized insect cell membranes containing the appropriate COX enzyme were incubated in a potassium phosphate buffer (50 mM, pH 8.0) containing epinephrine, phenol, and heme with the addition of arachidonic acid (10 μM). Compounds were pre-incubated with the enzyme for 10-20 minutes prior to the addition of arachidonic acid. Any reaction between the arachidonic acid and the enzyme was stopped after ten minutes at 37° C./room temperature by transferring 40 μl of reaction mix into 160 μl ELISA buffer and 25 μM indomethacin. The PGE2 formed was measured by standard ELISA technology (Cayman Chemical).

COX-1 = COX-1 activity in vitro (PGE2 formed, ELISA); type: biochemical, human or murine; settings: recombinant enzyme, arachidonic acid 10 μM, pH 8.0; read-out: COX-1 ID50
Protocol: as §1, §2, §3, §4, §5

Row | Compound | IC50 (COX-2) | IC50 (COX-1)
1 | 4-[2-(methylsulfonyl)-4-phenyl-5-oxazolyl]benzenesulfonamide [Example 53] | 500 nM | 
2 | 4-[2-methylsulfinyl)-4-phenyl-5-oxazolyl]benzenesulfonamide [Example 52] |  | 35 µM
3 | COC(=O)CCc1nc(-c2ccc(S(C)(=O)=O)cc2)c(-c2ccc(F)cc2)o1 [Example 15, Methyl 3-[5-(4-fluorophenyl)-4-[4-(methylsulfonyl)phenyl]]-2-oxazolepropanoate] | 200 nM | > 30 µM
4 | CCOC(=O)Cc1nc(-c2ccc(S(N)(=O)=O)cc2)c(-c2ccc(OC)c(F)c2)o1 [Example 34, ethyl [4-(4-aminosulfonylphenyl)-5-(3-fluoro-4-methoxyphenyl)]-2-oxazoleacetate] | < 100 nM | 0.2 µM
5 | NS(=O)(=O)c1ccc(-c2oc(CC(=O)O)nc2-c2ccc(Cl)cc2)cc1 [Example 36, [5-(4-aminosulfonylphenyl)-4-(4-chlorophenyl)]-2-oxazoleacetic acid] | 1400 nM | 24.7 µM
6 | NS(=O)(=O)c1ccc(-c2nc(CC(=O)O)oc2-c2ccc(Cl)cc2)cc1 [Example 37, [4-(4-aminosulfonylphenyl)-5-(4-chlorophenyl)]-2-oxazoleacetic acid] | 7000 nM | 3.4 µM
7 | NS(=O)(=O)c1ccc(-c2nc(CC(=O)O)oc2-c2ccc(F)c(Cl)c2)cc1 [Example 39, [4-(4-aminosulfonylphenyl)-5-(3-chloro-4-fluorophenyl)]-2-oxazoleacetic acid] | 79000 nM | > 100 µM
8 | NS(=O)(=O)c1ccc(-c2nc(CC(=O)O)oc2-c2ccc(Cl)c(Cl)c2)cc1 [Example 40, [4-(4-aminosulfonylphenyl)-5-(3.4-dichlorophenyl)]-2-oxazoleacetic acid] | < 100 nM | 26 µM
9 | NS(=O)(=O)c1ccc(-c2nc(CC(=O)O)oc2-c2ccc(F)c(F)c2)cc1 [Example 41] | 60700 nM | > 100 µM
10 | NS(=O)(=O)c1ccc(-c2nc(C(F)(F)F)oc2-c2ccc(F)c(F)c2)cc1 [Example 42, 4-[5-(3.4-difluorophenyl)-2-trifluoromethyl-4-oxazolyl]benzenesulfonamide] | < 100 nM | 11.4 µM
11 | NS(=O)(=O)c1ccc(-c2oc(Oc3c(F)c(F)c(F)c(F)c3F)nc2-c2ccccc2)cc1 [Example 54, 4-[2-(2,3,4,5,6-pentafluorophenoxy)-4-phenyl-5-oxazolyl]benzenesulfonamide] | < 100 nM | 3 µM
12 | CCOC(=O)c1ccccc1Oc1nc(-c2ccccc2)c(-c2ccc(S(N)(=O)=O)cc2)o1 [Example 56, ethyl 2-[[5-(4-aminosulfonylphenyl)-4-phenyl-2-oxazolyl]oxy]benzoate] | < 100 nM | 4.5 µM
13 | NS(=O)(=O)c1ccc(-c2nc(C(F)(F)F)oc2-c2ccc(Cl)cc2)cc1 [Example 59, 4-[5-(4-chlorophenyl)-2-trifluoromethyl-4-oxazolyl]benzenesulfonamide] | < 100 nM | 0.4 µM
14 | CN(C)c1ccc(-c2nc(C(F)(F)F)oc2-c2ccc(S(N)(=O)=O)cc2)cc1 [Example 65, 4-[4-Dimethylaminophenyl-2-trifluoromethyl-5-oxazolyl]benzenesulfonamide] | < 100 nM | < 0.1 µM
15 | COc1ccc(-c2oc(CC(=O)O)nc2-c2ccc(S(N)(=O)=O)cc2)cc1F [Example 66, [4-(4-aminosulfonylphenyl)-5-(3-fluoro-4-methoxyphenyl)]-2-oxazoleacetic acid] | 13000 nM | 21 µM
16 | NS(=O)(=O)c1ccc(-c2nc(C(Br)C(=O)O)oc2-c2ccc(Cl)cc2)cc1 (stereo not drawn) [Example 67] | 800 nM | 33 µM
17 | COc1ccc(-c2oc(C)nc2-c2ccc(S(N)(=O)=O)cc2)cc1F [Example 69] | 500 nM | 79 µM
18 | COc1c(F)cc(-c2oc(C(F)(F)F)nc2-c2ccc(S(N)(=O)=O)cc2)cc1Br [Example 71, 4-[5-(3-bromo-4-methoxy-5-fluorophenyl)-2-trifluoromethyl-4-oxazolyl]benzenesulfonamide] | 100 nM | 51 µM

Results, then the compound that gave them:

Row | IC50 (COX-2) | IC50 (COX-1) | Compound
19 | > 10000 nM | > 30 µM | Cc1nc(-c2ccc(S(C)(=O)=O)cc2)c(-c2ccc(F)cc2)o1 [Example 14, 5-(4-Fluorophenyl)-2-methyl-4-[4-(methylsulfonyl)phenyl]oxazole]
20 | 500 nM | > 10 µM | CS(=O)(=O)c1ccc(-c2oc(-c3ccccc3)nc2C2CCCCC2)cc1 [Example 25, 4-(cyclohexyl)-5-[4-(methylsulfonyl)phenyl]-2-phenyloxazole]
21 | < 100 nM | 15.9 µM | CS(=O)(=O)c1ccc(-c2oc(CCC3CCCCC3)nc2-c2ccc(F)cc2)cc1 [Example 32, 2-(2-cyclohexylethyl)-4-(4-fluorophenyl)-5-[4-(methylsulfonyl)phenyl]oxazole]
22 | 50 nM | 3.1 µM | CCOC(=O)C(Cc1ccccc1)c1nc(-c2ccc(F)cc2)c(-c2ccc(S(C)(=O)=O)cc2)o1 (stereo not drawn) [Example 33]
23 | < 100 nM | 72 µM | NS(=O)(=O)c1ccc(-c2oc(CC(=O)O)nc2-c2ccccc2)cc1 [Example 38, [5-(4-aminosulfonylphenyl)-4-phenyl]-2-oxazoleaceticacid]
24 | 3100 nM | 2.3 µM | NS(=O)(=O)c1ccc(-c2oc(CCC(=O)O)nc2-c2ccccc2)cc1 [Example 43, [5-(4-aminosulfonylphenyl)-4-phenyl]-2-oxazolepropionic acid]
25 | 79000 nM | > 100 µM | NS(=O)(=O)c1ccc(-c2ocnc2-c2ccccc2)cc1 [Example 44, 4-[4-phenyl-5-oxazolyl]benzenesulfonamide]
26 | < 100 nM | 6.5 µM | NS(=O)(=O)c1ccc(-c2oc(Cl)nc2-c2ccccc2)cc1 [Example 45, 4-[2-chloro-4-phenyl-5-oxazolyl]benzenesulfonamide]
27 | 500 nM | 1.7 µM | NS(=O)(=O)c1ccc(-c2oc(S)nc2-c2ccccc2)cc1 [Example 46, 4-[2-mercapto-4-phenyl-5-oxazolyl]benzenesulfonamide]
28 | < 100 nM | 1 µM | NS(=O)(=O)c1ccc(-c2oc(Oc3cccc(Cl)c3)nc2-c2ccccc2)cc1 [Example 47]
29 | 2100 nM | 0.3 µM | NS(=O)(=O)c1ccc(-c2oc(SCC(=O)O)nc2-c2ccccc2)cc1 [Example 48, 5-(4-aminosulfonylphenyl)-4-phenyl-2-oxazolemercaptoacetic acid]
30 | < 100 nM | 4.1 µM | NS(=O)(=O)c1ccc(-c2oc(OCC(F)(F)F)nc2-c2ccccc2)cc1 [Example 49]
31 | < 100 nM | 7.4 µM | CSc1nc(-c2ccccc2)c(-c2ccc(S(N)(=O)=O)cc2)o1 [Example 50, 4-[2-Methylthio-4-phenyl-5-oxazolyl]benzenesulfonamide]
32 | < 100 nM | 14 µM | Cc1nc(-c2ccccc2)c(-c2ccc(S(N)(=O)=O)cc2)o1 [Example 51, 4-[2-methyl-4-phenyl-5-oxazolyl]benzenesulfonamide]
33 | < 100 nM | 3.2 µM | CCOC(=O)c1cccc(Oc2nc(-c3ccccc3)c(-c3ccc(S(N)(=O)=O)cc3)o2)c1 [Example 57, ethyl 3-[[5-(4-aminosulfonylphenyl)-4-phenyl-2-oxazolyl]oxy]benzoate]
34 | < 100 nM | 31 µM | CN(C)c1nc(-c2ccccc2)c(-c2ccc(S(N)(=O)=O)cc2)o1 [Example 58, 4-[2-(N,N-dimethylamino)-4-phenyl-5-oxazolyl]benzenesulfonamide]
35 | < 100 nM | 1.1 µM | NS(=O)(=O)c1ccc(-c2oc(C(F)(F)F)nc2-c2ccccc2)cc1 [Example 64, 4-[4-phenyl-2-trifluoromethyl-5-oxazolyl]benzenesulfonamide]
36 | < 100 nM | 2 µM | Cc1ccc(-c2nc(C(F)(F)F)oc2-c2ccc(S(C)(=O)=O)cc2)cc1 [Example 68, 4-(4-methylphenyl)-5-(4-methylsulfonylphenyl)-2-trifluoromethyl-oxazole]
37 | 2200 nM | > 100 µM | NC(=O)c1nc(-c2ccccc2)c(-c2ccc(S(N)(=O)=O)cc2)o1 [Example 72, 5-(4-aminosulfonylphenyl)-4-phenyl-oxazole-2-carboxamide]
